The subject of assay [1] is ELANE. The conditions noted are these: specific ELANE inhibitors; cited from earlier work.
Assay [2] deals with MDA-MB-231 cells. The assay can be described thus: ELANE inactivation by PMSF or A1AT and killing assay. It counts as cell-based, human. To be noted: irreversible non-competitive ELANE inhibitors. As to the method: (FIG. 5A) Purified native ELANE or PMN media was treated with PMSF (100 nM) or alpha-1-anti-trypsin (A1AT; 42 nM) for 30 mins and loss of ELANE catalytic activity was confirmed by a chromogenic substrate assay. Killing assays were performed by treating MDA-MB-231 cells for 24 hrs treatment and assessed by Calcein AM staining. (FIG. 5B) ELANE activity in PMN media was measured by a chromogenic substrate activity assay, and PMN killing was measured by Calcein AM staining on MDA-MB-231 cells exposed to PMN media for 4h.

In assay [3] the test system is E0771, B16F10, or LLC1 cancer cells. Briefly: Tumor growth after intratumoral delivery, syngeneic models. It counts as in vivo, C57BL/6 mice. To be noted: 11.6 μg intratumorally once/day for 5 days. As to the method: ELANE activity is required for its anti-tumor function in vivo. (FIG. 14A) Catalytic activity of ELANE or ELANE that had been inactivated by treatment with 100 nM PMSF (PMSF-ELANE) was determined by a chromogenic substrate. (FIG. 14B) E0771, B16F10, or LLC1 cancer cells were injected into C57BL/6 mice. Once tumors reached ˜100 mm^3, human serum albumin (HSA, 11.6 μg), ELANE (11.6 μg), or PMSF-ELANE (11.6 μg) were delivered intratumorally once/day for 5 days. Tumor volume was assessed by calipers.

Ends that are not written are not given here.

“elafin (AQEPVKGPVSTKPGSCPIILIRCAMLNPPNRCLKDTDCPGIKKCCEGSCGMACFVPQ; ends and bridges not checked; cysteine pairing not given here; UniProt P19957 61-117, looked up)”: in assay [1], the “growth of transplanted cancer cells” value is “suppress growth of cancer cells transplanted into severe combined immunodeficiency mice”.

Turning to `CC(C)(C)C(=O)Oc1ccc(S(=O)(=O)Nc2ccccc2C(=O)NCC(=O)O)cc1` [sivelestat], in assay [1], the “growth of transplanted cancer cells” value is reported as “suppress growth of cancer cells transplanted into severe combined immunodeficiency mice”.

For the molecule alpha-1-antitrypsin, the “effect on cancer cell apoptosis of treating ELANE or neutrophil conditioned media with inhibitor” value in assay [2] is given as “protects cancer cells from apoptosis”.

Regarding `O=S(=O)(F)Cc1ccccc1` [PMSF], the “effect on cancer cell apoptosis of treating ELANE or neutrophil conditioned media with inhibitor” value in assay [2] is “protects cancer cells from apoptosis”.

B1: PMSF-ELANE: ELANE that had been inactivated by treatment with PMSF (protein, UniProt P08246 30-267, looked up)
Neutrophil elastase: IVGGRRARPHAWPFMVSLQLRGGHFCGATLIAPNFVMSAAHCVANVNVRAVRVVLGAHNLSRREPTRQVFAVQRIFENGYDPVNLLNDIVILQLNGSATINANVQVAQLPAQGRRLGNGVQCLAMGWGLLGRNRGIASVLQELNVTVVTSLCRRSNVCTLVRGRQAGVCFGDSGSPLVCNGLIHGIASFVRGGCASGLYPDAFAPVAQFVNWIDSIIQRSEDNPCPHPRDPDPASRTH
modifications: PMSF-inactivated
For B1, the tumor growth entry in assay [3] is recorded as “no effect on tumor growth”.
